Test results published in patent US7585833B2, “Malodor covering perfumery” (Givaudan Fragrances Corporation, priority 2005, dated 2009).

How the values were obtained:
[1] = cited from earlier work; for ODT (ppb): odor detection threshold, Table 3
[2] = Stability and malodor coverage evaluation of odorants in permanent hair color crème (10% ammonia); parameters: key to malodor coverage rating 1 Week RT / malodor coverage rating 1 Week Oven / malodor coverage rating 6 Weeks RT / malodor coverage rating 6 Weeks Oven / malodor coverage rating 2 Weeks RT / malodor coverage rating 2 Weeks Oven / malodor coverage rating 3 Weeks RT / malodor coverage rating 3 Weeks Oven / malodor coverage rating 4 Weeks RT / malodor coverage rating 4 Weeks Oven / malodor coverage rating 5 Weeks RT / malodor coverage rating 5 Weeks Oven: E: excellent; VG: very good; G: good coverage; key to odorant performance 1 Week RT / odorant performance 1 Week Oven / odorant performance 2 Weeks RT / odorant performance 2 Weeks Oven / odorant performance 3 Weeks RT / odorant performance 3 Weeks Oven / odorant performance 4 Weeks RT / odorant performance 4 Weeks Oven: E=excellent; VG=very good; G=good; F=fair; P=poor; settings: for odorant performance 1 Week Oven / odorant performance 1 Week RT / odorant performance 2 Weeks Oven / odorant performance 2 Weeks RT / odorant performance 3 Weeks Oven / odorant performance 3 Weeks RT / odorant performance 4 Weeks Oven / odorant performance 4 Weeks RT: odorant at 0.2% in dye less permanent hair color crème (10% ammonia hydroxide); for odorant performance 1 Week Oven / odorant performance 2 Weeks Oven / odorant performance 3 Weeks Oven / odorant performance 4 Weeks Oven: oven temperature; for odorant performance 1 Week RT / odorant performance 2 Weeks RT / odorant performance 3 Weeks RT / odorant performance 4 Weeks RT / malodor coverage rating 1 Week RT / malodor coverage rating 2 Weeks RT / malodor coverage rating 3 Weeks RT / malodor coverage rating 4 Weeks RT / malodor coverage rating 5 Weeks RT / malodor coverage rating 6 Weeks RT: room temperature; for malodor coverage rating 1 Week Oven / malodor coverage rating 1 Week RT / malodor coverage rating 2 Weeks Oven / malodor coverage rating 2 Weeks RT / malodor coverage rating 3 Weeks Oven / malodor coverage rating 3 Weeks RT / malodor coverage rating 4 Weeks Oven / malodor coverage rating 4 Weeks RT / malodor coverage rating 5 Weeks Oven / malodor coverage rating 5 Weeks RT / malodor coverage rating 6 Weeks Oven / malodor coverage rating 6 Weeks RT: 10% ammonia formulation; for malodor coverage rating 1 Week Oven / malodor coverage rating 2 Weeks Oven / malodor coverage rating 3 Weeks Oven / malodor coverage rating 4 Weeks Oven / malodor coverage rating 5 Weeks Oven / malodor coverage rating 6 Weeks Oven: oven at 37° C.; for stability observation in the formulation: odorant at 0.2% in permanent hair color crème (10% ammonia hydroxide), remark beside the raw material
Source text: The marks E, VG, G stand for excellent, very good and good coverage and are part of a 5 scale rating system. […] Odorants were put up at 0.2% in the formulation, and odorants were subjected to 6 week stability testing at room temperature (R.T.) and […] oven temperature. […] G=good, F=fair; P=poor).

| Structure (SMILES) | ODT (ppb) [1] | odorant performance 1 Week Oven [2] | odorant performance 1 Week RT [2] | odorant performance 2 Weeks Oven [2] | odorant performance 2 Weeks RT [2] | odorant performance 3 Weeks Oven [2] | odorant performance 3 Weeks RT [2] | odorant performance 4 Weeks Oven [2] | odorant performance 4 Weeks RT [2] | other results |
| --- | --- | --- | --- | --- | --- | --- | --- | --- | --- | --- |
| CCOC(=O)CC(C)C [ethyl 3-methylbutanoate] | less than 50 ppb |  |  |  |  |  |  |  |  |  |
| CC(C=O)Cc1ccc(C(C)(C)C)cc1 (stereo not drawn) [Lilial, p-t-Butyl-α-methylhydrocinnamic aldehyde] |  | G | G | G | G | G | G | G | G |  |
| C=CC(C)(O)CCC=C(C)C (stereo not shown) [LINALOOL SYNTHETIC, LINALOOL] |  | G | G | G | G | G | G | G | G |  |
| CCC(C)COC(C)=O (stereo not drawn) [β-methyl butyl acetate] | less than 50 ppb |  |  |  |  |  |  |  |  |  |
| CCCCCC(=O)OCC [ethyl hexanoate] | less than 50 ppb |  |  |  |  |  |  |  |  |  |
| CC12CCC(CC1)C(C)(C)O2 [1,3,3-trimethyl-2-oxabicyclo[2.2.2]octane] | less than 50 ppb |  |  |  |  |  |  |  |  |  |
| C=CCOC(=O)COCCC(C)C [ALLYL AMYL GLYCOLATE] |  | G | G | F | G | F | G | F | G |  |
| CCCCCCOC(C)=O [hexyl acetate] | less than 50 ppb |  |  |  |  |  |  |  |  |  |
| COC(=O)C=C1CCCC1 [methyl cyclopentylidene acetate] | less than 50 ppb |  |  |  |  |  |  |  |  |  |
| CC=CC(=O)C1=C(C)CCCC1(C)C [β-damascone, β-1-(2,6,6-trimethyl-1-cyclohexen-1-yl)-2-buten-1-one] |  | VG | E | VG | E | G | VG | G | VG | odor detection threshold value in water ([1]; in water): 0.09 parts per billion; malodor coverage rating 1 Week Oven [2]: VG; malodor coverage rating 1 Week RT [2]: E; malodor coverage rating 2 Weeks Oven [2]: VG; malodor coverage rating 2 Weeks RT [2]: E; malodor coverage rating 3 Weeks Oven [2]: G; malodor coverage rating 3 Weeks RT [2]: VG; malodor coverage rating 4 Weeks Oven [2]: G; malodor coverage rating 4 Weeks RT [2]: VG; malodor coverage rating 5 Weeks Oven [2]: G; malodor coverage rating 5 Weeks RT [2]: VG; malodor coverage rating 6 Weeks Oven [2]: G; malodor coverage rating 6 Weeks RT [2]: G |
| CCCCCOC(C)=O [pentyl acetate] | less than 50 ppb |  |  |  |  |  |  |  |  |  |
| CC(C)CC1CC(C)(O)CCO1 (stereo not shown) [FLOROL] |  | F | F | P | P | P | P | P | P |  |
| CCCCCC(=O)CC [3-octanone] | less than 50 ppb |  |  |  |  |  |  |  |  |  |
| CCCCCCC(C=O)=Cc1ccccc1 [Hexyl cinnamic aldehyde] |  | G | G | G | G | G | G | G | G | stability observation in the formulation [2]: HEXYL CINNAMIC ALDEHYDE (cloudy) |
| CC/C=C\CCC=O [cis-4-heptenal] | less than 50 ppb |  |  |  |  |  |  |  |  |  |
| CCCC(C)C(=O)OCC (stereo not shown) [ethyl 2-methylpentanoate] | less than 50 ppb |  |  |  |  |  |  |  |  |  |

| Structure (SMILES) | ODT (ppb) [1] | odorant performance 1 Week Oven [2] | odorant performance 1 Week RT [2] | odorant performance 2 Weeks Oven [2] | odorant performance 2 Weeks RT [2] | odorant performance 3 Weeks Oven [2] | odorant performance 3 Weeks RT [2] | odorant performance 4 Weeks Oven [2] | odorant performance 4 Weeks RT [2] | other results |
| --- | --- | --- | --- | --- | --- | --- | --- | --- | --- | --- |
| CC1COCc2cc3c(cc21)C(C)(C)C(C)C3(C)C (stereo not shown) [Galaxolide, 1,3,4,6,7,8-Hexahydro-4,6,6,7,8,8-hexamethylcyclopenta-γ-2-benzopyran] |  |  |  |  |  |  |  |  |  | malodor coverage rating 1 Week Oven [2]: E; malodor coverage rating 1 Week RT [2]: E; malodor coverage rating 2 Weeks Oven [2]: VG; malodor coverage rating 2 Weeks RT [2]: VG; malodor coverage rating 3 Weeks Oven [2]: G; malodor coverage rating 3 Weeks RT [2]: G; malodor coverage rating 4 Weeks Oven [2]: G; malodor coverage rating 4 Weeks RT [2]: G; malodor coverage rating 5 Weeks Oven [2]: G; malodor coverage rating 5 Weeks RT [2]: G; malodor coverage rating 6 Weeks Oven [2]: G; malodor coverage rating 6 Weeks RT [2]: G |
| O=C(OCc1ccccc1)c1ccccc1O [BENZYL SALICYLATE] |  | G | G | G | G | F | F | F | F |  |
| CC/C=C\CCOC(=O)OC [cis-3-hexenyl methyl carbonate] | less than 50 ppb |  |  |  |  |  |  |  |  |  |
| CCOC(=O)C(C)CC (stereo not shown) [ethyl-2-methylbutyrate] | less than 50 ppb |  |  |  |  |  |  |  |  |  |
| CC(C)=CCCC(C)C=O (stereo not shown) [2,6-dimethyl-5-heptenal] | less than 50 ppb |  |  |  |  |  |  |  |  |  |
| CCCC(=O)OCC [ethyl butyrate] | less than 50 ppb |  |  |  |  |  |  |  |  |  |
| CC/C=C\CCOC(C)=O [cis-3-hexenyl acetate] |  | G | G | G | G | F | F | F | F |  |
| CCc1ccc(CC(C)(C)C=O)cc1 [FLORALOZONE] |  | G | G | G | G | G | G | G | G |  |
| CC1CC=CCCCCCCCCCC(=O)C1 (stereo not shown) [MUSCENONE @ 10% DPG] |  | F | F | F | F | F | F | F | F |  |
| CCOC(=O)CC1(C)OCCO1 [ethyl 2-methyl-1,3-dioxolane-2-acetate] | less than 50 ppb |  |  |  |  |  |  |  |  |  |
| CCOC(=O)CC [ethyl propionate] | less than 50 ppb |  |  |  |  |  |  |  |  |  |
| CCOC(=O)CC(C)=O [ETHYL ACETOACETATE] |  | F | F | F | F | F | F | F | F | stability observation in the formulation [2]: ETHYL ACETOACETATE (discolors in oven) |
| CCCCCCOC [methyl hexyl ether] | less than 50 ppb |  |  |  |  |  |  |  |  |  |
| CCCOC(=O)CCC [propyl butyrate] | less than 50 ppb |  |  |  |  |  |  |  |  |  |
| CCC/C=C/C=O [TRANS-2-HEXENAL @ 10% DPG, TRANS-2-HEXENAL] |  | F | G | F | G | F | G | F | F |  |
| CCCCCC=O [hexanal] | less than 50 ppb |  |  |  |  |  |  |  |  |  |
